# Results reported in patent publication US5723625A, “Process for the production of specific isomer mixtures from oxindole alkaloids” (Immodal Pharmaka Gesellschaft m.b.H, priority 1994, dated 1998).
# Legend:
# Assay type in all cases: physicochemical
# [1] = Equilibrium of mitraphylline isomers in the two-phase system 1-octanol/water; settings: for resulting equilibrium (water): aqueous phase; for resulting equilibrium (octanol): octanol phase
# Excerpt: (§1) Protonation of the alkaloid hinders partition into the solvent, but the dependence of the distribution coefficient on pH is different for each isomer due to their different basicity. When the isomerization takes place in such a two-phase system, the equilibrium obtained in the organic phase is different from that in the aqueous phase. As an example, the coefficients of distribution Ko/w of mitraphylline and isomitraphylline between 1-octanol and water at three pH values and the corresponding equilibria are given in table 6 (FIG.11). |Coefficients of distribution between 1-octanol and water KO/W for |mitraphylline and isomitraphylline and the resulting equilibria as a |function of pH at 25° C. (% per weight).
# [2] = Effect of temperature and solvent on the equilibrium composition of the mitraphylline isomers
# Excerpt: The use of solvents with different polarity gave different equilibria, while other conditions were identical.
# [3] = physchem; settings: 1-octanol/water
# Excerpt: as §1
# [4] = Effect of temperature and solvent on the equilibrium composition of the pteropodine isomers
# Method: | Effect of temperature and solvent on the equilibrium composition | of the pteropodine isomers (temperature from 25 to | 50° C., % per weight) The use of solvents with different polarity gave different equilibria, while other conditions were identical.
# [5] = Effect of temperature on the rate of isomerization of pteropodine; settings: water, c=20 mg/l, 50 hours
# Method: The effect of temperature on the rate of reaction was investigated. Pteropodine was dissolved in water (c=20 mg/l) and isomerized at various temperatures for 50 hours. The reactions were monitored (FIG. 9). An increase of temperature by 12° C. accelerated the reaction by a factor of 5.
# [6] = Rate of isomerization of pteropodine in solvents and solvent mixtures; settings: 50° C.; for rate coefficient of isomerization k: k = k12 + k13 + k14 from initial rate
# Method: It is known from the literature that oxindole alkaloids undergo isomerization in polar solvents. Therefore hexafluoropropan-2-ol as a highly polar solvent was examined for its suitability as a medium for isomerization. A solution of pteropodine in hexafluoropropan-2-ol with a concentration of 18 mg/l was allowed to rest for 8 days at 20° C. Continually, samples were taken and analyzed. […] Pyridine has been reported to be a suitable solvent for the isomerization, although its polarity is very low. Our results confirmed this, but only when at least small portions of water were present. […] Important causes of solvent polarity are the dielectricity constant and the ability to form hydrogen bonds. The correlation of dielectricity and rate of reaction was investigated (table 1). | Correlation of the rate coefficient of isomerization of pteropodine and |dielectricity constant ε in pure solvents at 50° C.^a | ^a The rate coefficient k was determined from the initial rate of | isomerization of pteropodine and, therefore, is a composite coefficient k | = k12 + k13 + k14 and has the dimension [h^-1 ]. The | coefficient k12 describes the transformation of pteropodine to | isopteropodine, k13 to speciophylline and k14 to uncarine F, | respectively. […] But it was noticed that solvents with the ability to form hydrogen bonds, like formamide, water, glycerol or methanol, effect faster isomerization than solvents without this ability. […] Consequently, mixtures of solvents were produced from one part with a high dielectricity constant and another part with the ability to form hydrogen bonds as a proton donor. Mixtures of one part formamide and one part alcohol turned out to be suitable reaction media. Water is the only solvent which combines a high dielectricity constant with the ability to form hydrogen bonds to an extent which allows satisfactory reaction rates. However, oxindole alkaloids are practically insoluble in water. Thus, it is obvious to use suitable co-solvents.
# [7] = Isomerization of pteropodine in hexafluoropropan-2-ol; settings: 18 mg/l, 8 days at 20° C.
# Method: It is known from the literature that oxindole alkaloids undergo isomerization in polar solvents. Therefore hexafluoropropan-2-ol as a highly polar solvent was examined for its suitability as a medium for isomerization. A solution of pteropodine in hexafluoropropan-2-ol with a concentration of 18 mg/l was allowed to rest for 8 days at 20° C. Continually, samples were taken and analyzed. […] Pyridine has been reported to be a suitable solvent for the isomerization, although its polarity is very low. Our results confirmed this, but only when at least small portions of water were present. […] Important causes of solvent polarity are the dielectricity constant and the ability to form hydrogen bonds. The correlation of dielectricity and rate of reaction was investigated (table 1).
# [8] = Effect of pH on equilibrium and rate of isomerization; settings: for dependence of isomer equilibrium mixture on pH: water-methanol 9:1, c=30 mg/l
# Excerpt: It is known from the literature (J. -L. Pousset, J. Poisson and M. Shamma, Bull.Soc.Chim. (1967), 2766) that oxindole alkaloids isomerize via a zwitterionic intermediate which is formed at the β-amino carboxyl system. There a double bond is formed between the amino nitrogen and the β-carbon, the bond between α and β-carbon is opened, and the spiro centre at the co-carbon becomes free for inversion (FIG. 2). […] The pH of a mixture of 9 parts of water and 1 part of methanol was adjusted to values from 2 to 9 by addition of phosphoric acid or sodium hydroxide, respectively. Pteropodine (c=30 mg/l) was isomerized in these solvents until the equilibrium was reached. […] The dependence of the pteropodine equilibrium on pH in pure water was investigated, too (FIG. 3b). […] (FIG. 4).
structure (smiles),measurement,setting,value
"COC(=O)C1=COC(C)C2CN3CCC4(C(=O)Nc5ccccc54)C3CC12 (stereo not drawn) [Isomitraphylline, isomitraphylline]",resulting equilibrium (water),"[1]; pH 3, 25° C.",11.9 % per weight
same,resulting equilibrium (water),"[1]; pH 5, 25° C.",0.5 % per weight
same,resulting equilibrium (water),"[1]; pH 7, 25° C.",0.08 % per weight
same,resulting equilibrium (octanol),"[1]; pH 3, 25° C.",32.0 % per weight
same,resulting equilibrium (octanol),"[1]; pH 5, 25° C.",93.9 % per weight
same,resulting equilibrium (octanol),"[1]; pH 7, 25° C.",78.8 % per weight
same,equilibrium composition,"[2]; 25° C., methanol",77.5 % per weight
same,equilibrium composition,"[2]; 25° C., water",65.6 % per weight
same,equilibrium composition,"[2]; 37° C., methanol",75.0 % per weight
same,equilibrium composition,"[2]; 37° C., water",67.5 % per weight
same,equilibrium composition,"[2]; 50° C., methanol",73.7 % per weight
same,equilibrium composition,"[2]; 50° C., water",68.0 % per weight
same,log KO/W,[3]; pH 3,0.43
same,log KO/W,[3]; pH 5,2.3
same,log KO/W,[3]; pH 7,2.8
"COC(=O)C1=CO[C@@H](C)[C@@H]2CN3CC[C@@]4(C(=O)Nc5ccccc54)[C@@H]3C[C@H]12 [Isopteropodine, isopteropodine]",equilibrium composition,"[4]; 25° C., methanol",75.4 % per weight
same,equilibrium composition,"[4]; 25° C., water",60.9 % per weight
same,equilibrium composition,"[4]; 37° C., methanol",75.5 % per weight
same,equilibrium composition,"[4]; 37° C., water",59.6 % per weight
same,equilibrium composition,"[4]; 50° C., methanol",73.5 % per weight
same,equilibrium composition,"[4]; 50° C., water",59.4 % per weight
"COC(=O)C1=COC(C)C2CN3CCC4(C(=O)Nc5ccccc54)C3CC12 (stereo not drawn) [Mitraphylline, mitraphylline]",resulting equilibrium (water),"[1]; pH 3, 25° C.",35.6 % per weight
same,resulting equilibrium (water),"[1]; pH 5, 25° C.",1.0 % per weight
same,resulting equilibrium (water),"[1]; pH 7, 25° C.",0.12 % per weight
same,resulting equilibrium (octanol),"[1]; pH 3, 25° C.",20.5 % per weight
same,resulting equilibrium (octanol),"[1]; pH 5, 25° C.",4.6 % per weight
same,resulting equilibrium (octanol),"[1]; pH 7, 25° C.",21.0 % per weight
same,equilibrium composition,"[2]; 25° C., methanol",22.5 % per weight
same,equilibrium composition,"[2]; 25° C., water",34.4 % per weight
same,equilibrium composition,"[2]; 37° C., methanol",25.0 % per weight
same,equilibrium composition,"[2]; 37° C., water",32.5 % per weight
same,equilibrium composition,"[2]; 50° C., methanol",26.3 % per weight
same,equilibrium composition,"[2]; 50° C., water",32.0 % per weight
same,log KO/W,[3]; pH 3,-0.24
same,log KO/W,[3]; pH 5,0.67
same,logD,"[3]; pH 7, log KO/W",2.5
"COC(=O)C1=COC(C)C2CN3CCC4(C(=O)Nc5ccccc54)C3CC12 (stereo not drawn) [Pteropodine, pteropodine]",acceleration of the reaction by an increase of temperature by 12° C. (factor),[5],5
same,equilibrium composition,"[4]; 25° C., methanol",22.9 % per weight
same,equilibrium composition,"[4]; 25° C., water",29.6 % per weight
same,equilibrium composition,"[4]; 37° C., methanol",22.6 % per weight
same,equilibrium composition,"[4]; 37° C., water",29.8 % per weight
same,equilibrium composition,"[4]; 50° C., methanol",23.5 % per weight
same,equilibrium composition,"[4]; 50° C., water",29.6 % per weight
same,rate coefficient of isomerization k,[6]; dimethyl sulfoxide,0.00007 h⁻¹
same,rate coefficient of isomerization k,[6]; dioxane,0.0000004 h⁻¹
same,rate coefficient of isomerization k,[6]; formamide,0.005 h⁻¹
same,rate of isomerization k,[6]; formamide-hexafluorpropan-2-ol (1:1),0.0037 h⁻¹
same,rate of isomerization k,[6]; formamide-methanol (1:1),0.0050 h⁻¹
same,rate coefficient of isomerization k,[6]; glycerol,0.0072 h⁻¹
same,rate coefficient of isomerization k,[6]; methanol,0.0020 h⁻¹
same,rate of isomerization k,[6]; methanol-dimethyl sulfoxide (1:1),0.0018 h⁻¹
same,rate of isomerization k,[6]; methanol-dioxane (1:1),0.0024 h⁻¹
same,rate coefficient of isomerization k,[6]; pyridine,0.00002 h⁻¹
same,rate coefficient of isomerization k,[6]; water,1.11 h⁻¹
same,rate of isomerization k,[6]; water-acetonitrile (1:1),0.042 h⁻¹
same,rate of isomerization k,[6]; water-dioxane (1:1),0.0012 h⁻¹
same,rate of isomerization k,[6]; water-formamide (1:1),0.067 h⁻¹
same,rate of isomerization k,[6]; water-methanol (1:1),0.043 h⁻¹
same,rate of isomerization k,[6]; water-pyridine (1:1),0.002 h⁻¹
same,isomerization,[7],No isomerization was observed
same,dependence of isomer equilibrium mixture on pH,[8]; acidic solutions,depended characteristically on the pH value
same,dependence of isomer equilibrium mixture on pH,[8]; neutral or alkaline solutions,independent of pH in neutral or alkaline solutions
same,rate of reaction with increasing proton concentration,[8]; pH 2 to 9,decreased with increasing proton concentration
"COC(=O)C1=COC(C)C2CN3CCC4(C(=O)Nc5ccccc54)C3CC12 (stereo not drawn) [Speciophylline, speciophylline]",equilibrium composition,"[4]; 25° C., methanol",0.4 % per weight
same,equilibrium composition,"[4]; 25° C., water",4.3 % per weight
same,equilibrium composition,"[4]; 37° C., methanol",0.5 % per weight
same,equilibrium composition,"[4]; 37° C., water",4.5 % per weight
same,equilibrium composition,"[4]; 50° C., methanol",1.0 % per weight
same,equilibrium composition,"[4]; 50° C., water",4.6 % per weight
"COC(=O)C1=COC(C)C2CN3CCC4(C(=O)Nc5ccccc54)C3CC12 (stereo not drawn) [Uncarine F, uncarine F]",equilibrium composition,"[4]; 25° C., methanol",1.3 % per weight
same,equilibrium composition,"[4]; 25° C., water",5.2 % per weight
same,equilibrium composition,"[4]; 37° C., methanol",1.4 % per weight
same,equilibrium composition,"[4]; 37° C., water",6.1 % per weight
same,equilibrium composition,"[4]; 50° C., methanol",2.0 % per weight
same,equilibrium composition,"[4]; 50° C., water",6.4 % per weight
